Tests used:
[1] = target: human constitutive proteasome (Beta5) (Homo sapiens (Human), UniProt P28074); test: Determination of Beta5 activity (fluorescence intensity assay, Suc-LLVY-AMC); format: biochemical
Procedure, shortened: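 Purified human constitutive proteasome (1.25 nM) preincubated with compounds (30 μM–15 pM) for 20 min (default) or 120 min at 25 °C in 50 mM Tris pH 7.4, 0.03% SDS, 1 mM EDTA, 1% DMSO. Suc-LLVY-AMC substrate at 40 μM, 60 min at 37 °C. Fluorescence read at ex 350/em 450 nm.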

[2] = target: human immuno proteasome (LMP7) (Homo sapiens (Human), UniProt P28062); test: Determination of LMP7 activity (fluorescence intensity assay, Suc-LLVY-AMC); format: biochemical
Procedure, shortened: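 Fluorogenic Suc-LLVY-AMC cleavage (40 μM substrate, 60 min, 37° C., ex 350/em 450 nm) measured after 0.25 nM human immunoproteasome was exposed to compound at 30 μM–15 pM. Preincubation was 20 min by default or 120 min (long) at 25° C., in Tris pH 7.4 with 0.03% SDS, 1 mM EDTA and 1% DMSO.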

[3] = LMP7 versus Beta5, long incubation (120 min)
[4] = LMP7 versus Beta5, incubation for 20 minutes

SMILES	IC50 ([1]; long incubation (120 min)) [nM]	Selectivity LMP7 vs Beta5 [2, 3]	IC50 ([2]; long incubation (120 min)) [nM]	IC50 ([1]; incubation for 20 minutes) [nM]	Selectivity LMP7 vs Beta5 [2, 4]	IC50 ([2]; incubation for 20 minutes) [nM]
C=CC(=O)N(c1ccccc1)[C@H](C)C(=O)N[C@@H](Cc1ccc(C)c(C)c1)B(O)O [Compound No. 47, [(1R)-2-(3,4-dimethylphenyl)-1-[[(2R)-2-(N-prop-2-enoylanilino)propanoyl]amino]ethyl]boronic Acid]	> 5000	+++++ (Selectivity ≥ 150)	50 to 500			
C=CC(=O)N(CC)CC(=O)N[C@@H](Cc1ccccc1)B(O)O [Compound No. 37, [(1R)-1-[[2-[ethyl(prop-2-enoyl)amino]acetyl]amino]-2-phenyl-ethyl]boronic Acid]				> 5000	+++ (70 ≤ 100)	50 to 500
C=CC(=O)N(CC(=O)N[C@@H](Cc1cccc(F)c1)B(O)O)c1ccccc1F [Compound No. 98, [(1R)-2-(3-fluorophenyl)-1-[[2-(2-fluoro-N-prop-2-enoyl-anilino)acetyl]amino]ethyl]boronic Acid]	> 5000	+++++ (Selectivity ≥ 150)	< 50			
C=CC(=O)N(CC(=O)N[C@@H](Cc1ccsc1)B(O)O)c1cccc(C(=O)N(C)C)c1 [Compound No. 102, [(1R)-1-[[2-[3-(dimethylcarbamoyl)-N-prop-2-enoyl-anilino]acetyl]amino]-2-(3-thienyl)ethyl]boronic Acid]	500 to 5000	++ (50 ≤ Selectivity < 70)	< 50			
C=CC(=O)N1CCC[C@@H]1C(=O)N[C@@H](Cc1ccc(Cl)cc1Cl)B(O)O [Compound No. 54, [(1R)-2-(2,4-dichlorophenyl)-1-[[(2R)-1-prop-2-enoylpyrrolidine-2-carbonyl]amino]ethyl]boronic Acid]	> 5000	++ (50 ≤ Selectivity < 70)	500 to 5000			
C=CC(=O)N(CC)CC(=O)N[C@@H](Cc1coc2ccccc12)B(O)O [Compound No. 36, [(1R)-2-(benzofuran-3-yl)-1-[[2-[ethyl(prop-2-enoyl)amino]acetyl]-amino]ethyl]boronic Acid]				50 to 500	+++ (70 ≤ 100)	< 50
C=CS(=O)(=O)N(C)CC(=O)N[C@@H](Cc1ccc(C)cc1C)B(O)O [Compound No. 15, [(1R)-2-(2,4-dimethylphenyl)-1-[[2-[methyl(vinylsulfonyl)amino]-acetyl]amino]ethyl]boronic Acid]				500 to 5000	+++ (70 ≤ 100)	< 50
C=CC(=O)N1CCCC[C@@H]1C(=O)N[C@@H](Cc1ccc(Cl)cc1Cl)B(O)O [Compound No. 51, [(1R)-2-(2,4-dichlorophenyl)-1-[[(2R)-1-prop-2-enoylpiperidine-2-carbonyl]amino]ethyl]boronic Acid]	> 5000	++++ (100 ≤ Selectivity < 150)	50 to 500			
C=CC(=O)N(CC(=O)N[C@@H](Cc1ccsc1)B(O)O)c1ccc(OC)c(OC)c1 [Compound No. 99, [(1R)-1-[[2-(3,4-dimethoxy-N-prop-2-enoyl-anilino)acetyl]-amino]-2-(3-thienyl)ethyl]boronic Acid]	> 5000	+++++ (Selectivity ≥ 150)	< 50			
C=CC(=O)N(CC#N)CC(=O)N[C@@H](Cc1ccc(C)c(C)c1)B(O)O [Compound No. 63, [(1R)-1-[[2-[cyanomethyl(prop-2-enoyl)amino]acetyl]amino]-2-(3,4-dimethylphenyl)ethyl]boronic Acid]	> 5000	+++++ (Selectivity ≥ 150)	< 50			
C=C(C)C(=O)N(CC)CC(=O)N[C@@H](Cc1ccc(C)cc1C)B(O)O [Compound No. 32, [(1R)-2-(2,4-dimethylphenyl)-1-[[2-[ethyl(2-methylprop-2-enoyl)-amino]acetyl]amino]ethyl]boronic Acid]				> 5000	+++ (70 ≤ 100)	50 to 500
C=CC(=O)N(C)CC(=O)N[C@@H](Cc1ccc2ccccc2c1)B(O)O [Compound No. 82, [(1R)-1-[[2-[methyl(prop-2-enoyl)amino]acetyl]amino]-2-(2-naphthyl)ethyl]boronic Acid]	500 to 5000	+++++ (Selectivity ≥ 150)	< 50			
C=CC(=O)N1CCCC[C@@H]1C(=O)N[C@@H](Cc1ccc(C)cc1C)B(O)O [Compound No. 38, [(1R)-2-(2,4-dimethylphenyl)-1-[[(2R)-1-prop-2-enoylpiperidine-2-carbonyl]amino]ethyl]boronic Acid]	> 5000	++++ (100 ≤ Selectivity < 150)	50 to 500			
C#CC(=O)N(CC(=O)N[C@@H](Cc1ccc(C)cc1C)B(O)O)c1ccccc1 [Compound No. 7, [(1R)-2-(2,4-dimethylphenyl)-1-[[2-(N-prop-2-ynoylanilino)acetyl]-amino]ethyl]boronic Acid]				500 to 5000	++++ (100 ≤ Selectivity < 150)	< 50
C=CC(=O)N(CC(=O)N[C@@H](Cc1ccc(Cl)c(Cl)c1)B(O)O)C1CC1 [Compound No. 69, [(1R)-1-[[2-[cyclopropyl(prop-2-enoyl)amino]acetyl]amino]-2-(3,4-dichlorophenyl)ethyl]boronic Acid]	500 to 5000	+++++ (Selectivity ≥ 150)				
CCN(CC(=O)N[C@@H](Cc1ccc(C)cc1C)B(O)O)C(=O)/C=C/C(=O)N(C)C [Compound No. 62, [(1R)-1-[[2-[[(E)-4-(dimethylamino)-4-oxo-but-2-enoyl]-ethyl-amino]acetyl]amino]-2-(2,4-dimethylphenyl)ethyl]boronic Acid]	> 5000	+++++ (Selectivity ≥ 150)	50 to 500			
C=CC(=O)N(CC(=O)N[C@@H](Cc1ccc(C)c(C)c1)B(O)O)c1ccccc1 [Compound No. 17, [(1R)-2-(3,4-dimethylphenyl)-1-[[2-(N-prop-2-enoylanilino)acetyl]-amino]ethyl]boronic Acid]				500 to 5000	+++ (70 ≤ 100)	< 50
C=CC(=O)N(CC)CC(=O)N[C@H](Cc1ccsc1)B(O)O [Compound No. 76, [(1S)-1-[[2-[ethyl(prop-2-enoyl)amino]acetyl]amino]-2-(3-thienyl)ethyl]boronic Acid]	> 5000	+ (Selectivity < 50)	500 to 5000			
C=CS(=O)(=O)N(C)CC(=O)N[C@@H](Cc1ccc(C)c(C)c1)B(O)O [Compound No. 10, [(1R)-2-(3,4-dimethylphenyl)-1-[[2-[methyl(vinylsulfonyl)amino]-acetyl]amino]ethyl]boronic Acid]				500 to 5000	+++++ (Selectivity ≥ 150)	< 50
C=CC(=O)N(C)[C@H](C)C(=O)N[C@@H](Cc1ccc(C)cc1C)B(O)O [Compound No. 52, [(1R)-2-(2,4-dimethylphenyl)-1-[[(2R)-2-[methyl(prop-2-enoyl)amino]propanoyl]amino]ethyl]boronic Acid]	> 5000	++ (50 ≤ Selectivity < 70)	500 to 5000			
C=CC(=O)N(CC(=O)N[C@@H](Cc1ccc(C)c(C)c1)B(O)O)CC(F)F [Compound No. 83, [(1R)-1-[[2-[2,2-difluoroethyl(prop-2-enoyl)amino]acetyl]-amino]-2-(3,4-dimethylphenyl)ethyl]boronic Acid]	> 5000	+++++ (Selectivity ≥ 150)	50 to 500			
C=CC(=O)N(CC(=O)N[C@@H](C[C@H]1COc2c(C)cccc21)B(O)O)c1ccccc1F [Compound No. 91, [(1R)-1-[[2-(2-fluoro-N-prop-2-enoyl-anilino)acetyl]amino]-2-[(3R)-7-methyl-2,3-dihydrobenzofuran-3-yl]ethyl]boronic Acid]				> 5000	+++++ (Selectivity ≥ 150)	50 to 500
C=CC(=O)N(CC(=O)N[C@@H](Cc1ccc(C)cc1C)B(O)O)CC(F)(F)F [Compound No. 57, [(1R)-2-(2,4-dimethylphenyl)-1-[[2-[prop-2-enoyl(2,2,2-trifluoroethyl)amino]acetyl]amino]ethyl]boronic Acid]	> 5000	+++++ (Selectivity ≥ 150)	50 to 500			
C/C=C/C(=O)N(CC)CC(=O)N[C@@H](Cc1ccc(C)cc1C)B(O)O [Compound No. 23, [(1R)-1-[[2-[[(E)-but-2-enoyl]-ethyl-amino]acetyl]amino]-2-(2,4-dimethylphenyl)ethyl]boronic Acid]				500 to 5000	+++ (70 ≤ 100)	< 50
C=CC(=O)N(CC(=O)N[C@@H](Cc1ccsc1)B(O)O)c1ccc(CC)cc1 [Compound No. 96, [(1R)-1-[[2-(4-ethyl-N-prop-2-enoyl-anilino)acetyl]amino]-2-(3-thienyl)ethyl]boronic Acid]	500 to 5000	+++++ (Selectivity ≥ 150)	< 50			
CCN(CC(=O)N[C@@H](Cc1ccc(C)cc1C)B(O)O)C(=O)C=C(C)C [Compound No. 24, [(1R)-2-(2,4-dimethylphenyl)-1-[[2-[ethyl(3-methylbut-2-enoyl)amino]-acetyl]amino]ethyl]boronic Acid]				500 to 5000	++ (50 ≤ Selectivity < 70)	50 to 500

From patent US10669289B2, “Boronic acid derivatives” (MERCK PATENT GMBH, priority 2014, dated 2020)
